From patent publication US20210369746A1, “ADMINISTRATION OF HYPOXIA ACTIVATED PRODRUGS IN COMBINATION WITH IMMUNE MODULATORY AGENTS FOR TREATING CANCER” (MOLECULAR TEMPLATES, INC., priority 2016, published 2021)

Tested on: TRAMP-C2 and/or Panc02 pancreatic ductal adenocarcinoma cells
Assay: Antitumor activity of TH-302 with immune modulating agents in mice xenografts
Type: in vivo
Conditions: single agent; TH-302 50 mg/kg i.p. every day for 5 days; tumor growth observed by IVIS
Experimental: 5×10^5 to 1×10^6 TRAMP-C2, C57BL/6J, B6, FVB F1 cells and/or Panc02 pancreatic ductal adenocarcinoma cells expressing luciferase are […] implanted s.c. on the right flank of albino or ODD-Luc reporter mice. The mice are treated with TH-302 alone (50 mg/kg i.p., every day for 5 days), either 1 week, 3 weeks or 16 weeks after TRAMP cell implantation, with a week of rest in between. Some mice are also treated with CTLA-4 blocking antibody 9H10, PD-1 blocking antibody RMP1-14 and/or agonistic […] antibody given i.p. on days 1, 4, 7 and days 13, 16 and 19 for one to three cycles. Mice are monitored for survival (log-rank, mantel-cox test) and tumor growth was observed by IVIS once a week up to 140 days after tumor implantation. The mice were then sacrificed and their organs were weighed and tumors were isolated, fixed in paraformaldehyde or acetone, embedded/mounted in OCT, frozen, sectioned, stained for hypoxia with anti-piminidazole FITC, GR-1 V450, CD11b Alexa 546, and/or F4/80 Alexa 647.

**Q.** Which tumor growth delay does the source give for `Cn1c(COP(=O)(NCCBr)NCCBr)cnc1[N+](=O)[O-]` [TH-302] here?
**A.** The tumor growth delay was “produced a growth delay”.
